Source: PubChem BioAssay AID330 (DTP/NCI, 2004)
Values joined by “and” are separate entries in the source; they are usually repeats but may differ in a detail not shown here. Equal values may be shown once. Toxic doses and inconclusive results are not listed. How the source made its calls: active means survival T/C of 150% or more; inactive means T/C below 125% in these data.

Tested on: P388 leukemia ip, CD2F1 mice, survival T/C
Test: NCI In Vivo Anticancer Drug Screen. Data for tumor model P388 Leukemia (intraperitoneal) in CD2F1 (CDF1) mice
Details: endpoint: median survival time, higher = longer survival
In short: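 Mice carrying the transplanted tumor received test compound or vehicle. Survival was recorded in each group, and the value is the treated-group measurement divided by that of the vehicle-treated control group.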

[1] = dose: 60.0 mg/kg/injection, schedule: Q01DX005 (ip), vehicle: saline with Tween-80
[2] = dose: 60.0 mg/kg/injection, schedule: Q01DX005 (ip), vehicle: Klucel (hydroxypropylcellulose) (HPC)
[3] = dose: 120.0 mg/kg/injection, schedule: Q01DX005 (ip), vehicle: Klucel (hydroxypropylcellulose) (HPC)
[4] = dose: 240.0 mg/kg/injection, schedule: Q01DX005 (ip), vehicle: Klucel (hydroxypropylcellulose) (HPC)
[5] = dose: 100.0 mg/kg/injection, schedule: Q01DX001 (ip), vehicle: Klucel (hydroxypropylcellulose) (HPC)
[6] = dose: 200.0 mg/kg/injection, schedule: Q01DX001 (ip), vehicle: Klucel (hydroxypropylcellulose) (HPC)

Measured: T/C

Cc1ccc(C)c(NC(=O)CCC(=O)CC(=O)c2ccncc2)c1
inactive: [1] 107 % of control | dose: 120.0 mg/kg/injection, schedule: Q01DX005 (ip), vehicle: saline with Tween-80 107 % of control | dose: 240.0 mg/kg/injection, schedule: Q01DX005 (ip), vehicle: saline with Tween-80 105 % of control

COc1ccc(-c2cc(=O)c3c(O)cc(O)cc3o2)cc1Oc1ccc(-c2cc(=O)c3c(O)cc(O)cc3o2)cc1
inactive: [2] 96 % of control | [3] 96 % of control | [4] 88 % of control

COc1ccc(C(SCC(N)C(=O)O)(c2ccccc2)c2ccc(OC)cc2)cc1 (centres undefined)
active: dose: 33.0 mg/kg/injection, schedule: Q04DX003 (ip), vehicle: saline 185 % of control | dose: 50.0 mg/kg/injection, schedule: Q04DX003 (ip), vehicle: saline 165 % of control
inactive: dose: 75.0 mg/kg/injection, schedule: Q04DX003 (ip), vehicle: saline 90 % of control

CC(C)=CCc1c(C)c(O)c(C)c(C)c1O
inactive: dose: 12.5 mg/kg/injection, schedule: Q01DX009 (ip), vehicle: distilled water + Tween-80 + alcohol 100 % of control | dose: 25.0 mg/kg/injection, schedule: Q01DX009 (ip), vehicle: distilled water + Tween-80 + alcohol 92 % of control | dose: 50.0 mg/kg/injection, schedule: Q01DX009 (ip), vehicle: distilled water + Tween-80 + alcohol 100 % of control | dose: 100.0 mg/kg/injection, schedule: Q01DX009 (ip), vehicle: distilled water + Tween-80 + alcohol 95 % of control | dose: 200.0 mg/kg/injection, schedule: Q01DX009 (ip), vehicle: distilled water + Tween-80 + alcohol 104 % of control

c1ccc(CNNc2nn[nH]n2)cc1
inactive: [5] 96 % of control | [6] 95 % of control | dose: 400.0 mg/kg/injection, schedule: Q01DX001 (ip), vehicle: Klucel (hydroxypropylcellulose) (HPC) 96 % of control

Cc1ccccc1C1OC2=C(Nc3ccc(Cl)cc3N2)C1=O (centres undefined)
inactive: [2] 101 % of control | [3] 91 % of control | [4] 101 % of control

O=C1c2ccccc2C(=O)N1C/C=C\c1ccccc1
inactive: dose: 100.0 mg/kg/injection, schedule: Q01DX001 (ip), vehicle: saline 102 % of control | dose: 200.0 mg/kg/injection, schedule: Q01DX001 (ip), vehicle: saline 102 % of control | dose: 400.0 mg/kg/injection, schedule: Q01DX001 (ip), vehicle: saline 107 % of control

CC(N=[N+]=[N-])n1nnnc1-c1ccccc1 (centres undefined)
inactive: dose: 25.0 mg/kg/injection, schedule: Q01DX001 (ip), vehicle: Klucel (hydroxypropylcellulose) (HPC) 101 % of control | dose: 50.0 mg/kg/injection, schedule: Q01DX001 (ip), vehicle: Klucel (hydroxypropylcellulose) (HPC) 121 % of control | [5] 113 % of control and 120 % of control | [6] 91 % of control

O=c1oc2ccccc2c(O)c1C(c1ccc2c(c1)OCO2)N1CCCC1 (centres undefined)
inactive: dose: 15.0 mg/kg/injection, schedule: Q01DX005 (ip), vehicle: saline with Tween-80 100 % of control | dose: 30.0 mg/kg/injection, schedule: Q01DX005 (ip), vehicle: saline with Tween-80 102 % of control | [1] 99 % of control and 103 % of control

COc1ccc2[nH]c(=O)c(COC(C)=O)c(COC(C)=O)c2c1
inactive: dose: 50.0 mg/kg/injection, schedule: Q01DX005 (ip), vehicle: Klucel (hydroxypropylcellulose) (HPC) 87 % of control | dose: 100.0 mg/kg/injection, schedule: Q01DX005 (ip), vehicle: Klucel (hydroxypropylcellulose) (HPC) 87 % of control | dose: 200.0 mg/kg/injection, schedule: Q01DX005 (ip), vehicle: Klucel (hydroxypropylcellulose) (HPC) 97 % of control

CN(N)c1nnnn1-c1ccccc1
inactive: dose: 50.0 mg/kg/injection, schedule: Q01DX009 (ip), vehicle: Klucel (hydroxypropylcellulose) (HPC) 104 % of control | dose: 100.0 mg/kg/injection, schedule: Q01DX009 (ip), vehicle: Klucel (hydroxypropylcellulose) (HPC) 117 % of control | dose: 200.0 mg/kg/injection, schedule: Q01DX009 (ip), vehicle: Klucel (hydroxypropylcellulose) (HPC) 113 % of control

CCOC(=O)c1csc(CCNC(=O)c2ccccc2)n1
inactive: dose: 12.5 mg/kg/injection, schedule: Q01DX009 (ip), vehicle: other 103 % of control | dose: 25.0 mg/kg/injection, schedule: Q01DX009 (ip), vehicle: other 102 % of control | dose: 50.0 mg/kg/injection, schedule: Q01DX009 (ip), vehicle: other 94 % of control | dose: 100.0 mg/kg/injection, schedule: Q01DX009 (ip), vehicle: other 94 % of control | dose: 200.0 mg/kg/injection, schedule: Q01DX009 (ip), vehicle: other 89 % of control

COCOCC(N)CS(C)=O (centres undefined)
inactive: dose: 50.0 mg/kg/injection, schedule: Q01DX005 (ip), vehicle: water 105 % of control | dose: 100.0 mg/kg/injection, schedule: Q01DX005 (ip), vehicle: water 97 % of control | dose: 200.0 mg/kg/injection, schedule: Q01DX005 (ip), vehicle: water 102 % of control
